# Test results reported in publication PMC8079988, “Inhibition of TMEM16A by Natural Product Silibinin: Potential Lead Compounds for Treatment of Lung Adenocarcinoma” (Frontiers in Pharmacology, 2021).
# Molecular target: T1, TMEM16A (Mus musculus, UniProt Q8BHY3)
# T1 construct: gene Ano1
# T1 sequence (Q8BHY3 1-960): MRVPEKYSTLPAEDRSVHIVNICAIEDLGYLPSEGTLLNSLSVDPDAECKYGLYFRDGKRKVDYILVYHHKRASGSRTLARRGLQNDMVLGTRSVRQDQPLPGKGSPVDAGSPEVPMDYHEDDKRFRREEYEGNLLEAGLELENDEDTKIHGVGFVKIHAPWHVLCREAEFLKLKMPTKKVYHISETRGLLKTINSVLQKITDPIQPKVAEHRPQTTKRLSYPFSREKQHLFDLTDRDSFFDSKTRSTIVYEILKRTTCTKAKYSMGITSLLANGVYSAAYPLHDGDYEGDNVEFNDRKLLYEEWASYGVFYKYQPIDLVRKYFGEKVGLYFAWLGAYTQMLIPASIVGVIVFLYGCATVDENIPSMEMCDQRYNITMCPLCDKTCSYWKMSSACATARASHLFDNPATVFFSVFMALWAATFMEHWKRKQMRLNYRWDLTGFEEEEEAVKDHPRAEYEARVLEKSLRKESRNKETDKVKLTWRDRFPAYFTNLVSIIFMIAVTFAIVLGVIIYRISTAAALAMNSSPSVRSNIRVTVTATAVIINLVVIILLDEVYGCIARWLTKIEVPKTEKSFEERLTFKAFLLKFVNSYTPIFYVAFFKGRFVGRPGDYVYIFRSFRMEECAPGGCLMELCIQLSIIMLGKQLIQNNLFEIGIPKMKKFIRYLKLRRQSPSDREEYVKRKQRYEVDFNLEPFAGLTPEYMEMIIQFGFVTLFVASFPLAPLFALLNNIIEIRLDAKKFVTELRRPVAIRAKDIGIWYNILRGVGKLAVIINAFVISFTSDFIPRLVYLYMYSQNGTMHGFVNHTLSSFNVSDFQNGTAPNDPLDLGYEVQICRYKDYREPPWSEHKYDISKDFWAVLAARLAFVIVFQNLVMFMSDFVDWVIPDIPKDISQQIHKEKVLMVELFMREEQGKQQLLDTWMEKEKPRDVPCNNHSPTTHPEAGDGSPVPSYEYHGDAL
# Assay: whole-cell patch clamp in LA795 cells; YFP quenching; site-directed mutagenesis
# Type: cell-based
smiles,measurement,value
COc1cc(C2Oc3cc([C@H]4Oc5cc(O)cc(O)c5C(=O)[C@@H]4O)ccc3OC2CO)ccc1O (stereo partly shown) [silibinin],IC50,30.9 ± 2.1 µM
